Assay results taken from patent US12527774B2, “Estrogen-related receptor alpha modulators” (LEAD PHARMA HOLDING B.V., priority 2019, dated 2026).

Experiments:
full length ERRα = full length ERRα (Homo sapiens (Human), UniProt P11474); experiment: Full Length ERRα Reporter Gene Assay; assay type: cell-based; settings: SK-BR-3 cells, ERRα-RE luciferase reporter, overnight incubation; for IC50: read-out: mean pIC50 (converted)
Description: Full Length ERRα Reporter Gene Assay
A method was established to quantitatively screen the potency of compounds with inverse agonistic activity on the nuclear receptor ERRα of the human species. The assay allows intra-cellular screening of ERRα inverse agonists in SK-BR-3 cells using an over-expression construct coding full length ERRα and a reporter construct containing an ERRα Response Element (RE) and a luciferase gene for read out. The activity is expressed in log IC50 values and can be used to determine SAR of compound families or to de-select compounds.
In this assay, reporter cells are obtained by transient co-transfection of two constructs in SK-BR-3 cells using standard transfection techniques. The first construct contains a response element of the nuclear receptor ERRα (Plasmid pLP2175, Reporter construct ERRα-RE/luc2P, cloned variant of ERRα_v2_synthRE, Switchgear Genomics, Catalog Number S900089). This sequence drives the transcription of the luciferase reporter gene in response to binding of an ERRα protein encoded by the second construct (Plasmid pLP2124: full length ERRα expression construct using pcDNA3.1/Hygro(+) as background, Invitrogen Catalog Number V87020).
The day after transfection, cells were plated into 96 well plates, test compound was added and the plates were incubated overnight. Subsequently, the firefly luciferase activity was quantified using luciferase detection reagent and luminescence readout.
Detailed Assay Description
Transfection is performed on pre-seeded SK-BR-3 cells in a T175 flask. One transfected T175 flask is sufficient for seeding 3 to 4 MW96 plates the next day, depending on the confluency of the transfected cells.
Two different media are used in this protocol for cell treatment: 1) Culture medium, i.e. McCoy's 5a with phenol red (BioWhittaker Supplier Number 12-688F), 10% FBS and 1× Penstrep.; and, 2) Assay medium, i.e. McCoy's 5a Medium phenol red free (HyClone Product Code SH30270.01) with 2% Charcoal Stripped FBS and 1× Penstrep. Compound dilutions are prepared in assay medium.
Cells are seeded at least 2 days in advance to allow the cells to adhere well to flask before transfection. Cells should be 50-80% confluent at the day of transfection.
SKBR3 cells were transfected with the transcriptional reporter construct pLP2175 and the ERRα expression construct pLP2124 (as described above).
68 μL of Lipofectamine LTX transfection reagent (Invitrogen Catalog Number 15338-100) was added dropwise to 8.9 ml Opti-MEM I Reduced Serum Medium (Gibco Catalog Number 51985-026) and incubated at room temperature for 5 to 20 minutes. 8.9 ml of this reagent mixture was added to 22 μg pLP2175+22 μg pLP2124 (ratio 1:1 and total volume 10 ml), and incubated at room temperature for 25 minutes.
10 minutes before adding the transfection mix to SKBR3 cells in a T175 flask, the culture medium was refreshed with 20 mL culture medium. Subsequently, the 10 mL DNA-Opti-MEM-Lipofectamine mixture was gently added to the cells, followed by overnight (16-24 hours) incubation at 37° C. and 5% CO2.
To harvest SKBR3 cells from a T175 flask, first the medium was removed. Subsequently, cells were washed with Phosphate Buffered Saline (PBS) (Lonza), after which the PBS was removed. To dissociate the cells, 2 ml of TrypLE Express (Invitrogen) was added to the flask, followed by incubation at 37° C. for 5 minutes. The flask was tapped until cells were detached from the bottom. Cells were collected in 8 mL of culture medium (McCoy's 5α, 10% FBS, penstrep), to achieve a single cell suspension. After cell count, cells were spun down for 5 minutes at 300 g. Next cell pellets were re-suspended to 25000 cells/80 μl assay medium (McCoy's 5a phenol red free, 2% charcoal stripped FBS, penstrep).
For compound screening, the cells were harvested (as described above). 80 μL of cell suspension (25,000 cells) was plated per well into a white, flat bottom, tissue culture treated, 96 well screening plates (Greiner). […]

[1] = molecular target: ERRα ligand binding domain (ERRα-LBD) (Homo sapiens (Human), UniProt P11474); experiment: ERRα AlphaScreen Assay; assay type: biochemical; settings: disruption of binding of ERRα-LBD protein to biotin-PGC1α-3 co-activator peptide; for IC50: read-out: mean pIC50 (converted)
Chain of ERRα ligand binding domain (ERRα-LBD) (P11474 193-421): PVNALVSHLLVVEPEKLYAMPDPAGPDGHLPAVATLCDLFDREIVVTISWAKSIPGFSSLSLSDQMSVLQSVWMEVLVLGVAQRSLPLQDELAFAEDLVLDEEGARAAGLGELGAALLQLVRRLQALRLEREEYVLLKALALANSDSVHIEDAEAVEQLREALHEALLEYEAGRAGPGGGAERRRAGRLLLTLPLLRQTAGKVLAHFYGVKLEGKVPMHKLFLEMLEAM
Outline: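 Disruption of co-activator binding read by AlphaScreen: compounds in triplicate, 1% DMSO, Tris pH 7.5 buffer, room temperature. Bacterially expressed 6His-SUMO-ERRα-LBD at 0.81 nM with beads for 1 h, then 15 nM biotinylated PGC1α peptide for 2 h. IC50 from four-parameter fits, averaged as pIC50.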

Chain of full length ERRα (P11474 whole entry): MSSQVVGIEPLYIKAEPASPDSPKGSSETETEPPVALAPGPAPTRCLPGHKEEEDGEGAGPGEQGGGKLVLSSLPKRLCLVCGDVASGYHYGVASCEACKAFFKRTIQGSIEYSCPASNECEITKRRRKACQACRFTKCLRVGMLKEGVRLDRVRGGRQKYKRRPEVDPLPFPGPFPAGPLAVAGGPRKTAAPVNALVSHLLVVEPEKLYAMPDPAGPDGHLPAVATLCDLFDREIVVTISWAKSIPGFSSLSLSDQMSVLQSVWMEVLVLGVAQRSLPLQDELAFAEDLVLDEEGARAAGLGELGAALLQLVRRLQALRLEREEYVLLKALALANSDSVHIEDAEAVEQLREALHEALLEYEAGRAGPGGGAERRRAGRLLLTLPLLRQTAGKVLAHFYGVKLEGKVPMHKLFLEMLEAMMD

| SMILES | IC50 (full length ERRα) [nM] | IC50 [1] [nM] | mean pIC50 [1] | mean pIC50 (full length ERRα) |
| --- | --- | --- | --- | --- |
| COc1cc(C2CC(=O)Nc3n[nH]nc32)ccc1OCc1ccc(C(C)=O)cc1C(F)(F)F (centres unmarked) [Example 93, 7-(4-{[4-acetyl-2-(trifluoromethyl)phenyl]methoxy}-3-methoxyphenyl)-2H,4H,5H,6H,7H-[1,2,3]triazolo[4,5-b]pyridin-5-one] | ≤ 316 | 10 to 100 | – | – |
| COc1cc(C2CC(=O)Nc3n[nH]cc32)ccc1OCc1ccc(CC(O)CO)cc1C(F)(F)F (centres unmarked) [Example 143, 4-(4-{[4-(2,3-dihydroxypropyl)-2-(trifluoromethyl)phenyl]methoxy}-3-methoxyphenyl)-2H,4H,5H,6H, 7H-pyrazolo[3,4-b]pyridin-6-one] | ≤ 316 | – | ≥ 8 | – |
| COc1cc(C2CC(=O)Nc3n[nH]cc32)ccc1OCc1ccc(Cl)cc1C(F)(F)F (centres unmarked) [Example 15, 4-(4-{[4-chloro-2-(trifluoromethyl)phenyl]methoxy}-3-methoxyphenyl)-2H,4H,5H,6H, 7H-pyrazolo[3,4-b]pyridin-6-one] | ≤ 316 | – | ≥ 8 | – |
| COc1cc(C2CC(=O)Nc3n[nH]cc32)ccc1OCc1ccc(Br)cc1C(F)(F)F (centres unmarked) [Example 33, 4-(4-{[4-bromo-2-(trifluoromethyl)phenyl]methoxy}-3-methoxyphenyl)-2H,4H,5H,6H,7H-pyrazolo[3,4-b]pyridin-6-one] | ≤ 316 | – | ≥ 8 | – |
| COc1ccc(C(F)(F)F)c(COc2ccc(-c3cc(=O)[nH]c4n[nH]cc34)cc2OC)c1 [Example 178, 4-(3-methoxy-4-{[5-methoxy-2-(trifluoromethyl)phenyl]methoxy}phenyl)-2H,6H,7H-pyrazolo[3,4-b]pyridin-6-one] | ≤ 316 | – | ≥ 8 | – |
| COc1cc(C2CC(=O)Nc3n[nH]cc32)ccc1OCc1ccc(CCO)cc1C(F)(F)F (centres unmarked) [Example 155, 4-(4-{[4-(2-hydroxyethyl)-2-(trifluoromethyl)phenyl]methoxy}-3-methoxyphenyl)-2H,4H,5H,6H, 7H-pyrazolo[3,4-b]pyridin-6-one] | ≤ 316 | – | ≥ 8 | – |
| COc1cc(C2CC(=O)Nc3n[nH]cc32)ccc1OCc1cc(C)ccc1C(F)(F)F (centres unmarked) [Example 32, 4-(3-methoxy-4-{[5-methyl-2-(trifluoromethyl)phenyl]methoxy}phenyl)-2H,4H,5H,6H,7H-pyrazolo[3,4-b]pyridin-6-one] | ≤ 316 | – | ≥ 8 | – |
| O=C1CC(c2ccc(OCc3ccccc3C(F)(F)F)c(OC(F)F)c2)c2c[nH]nc2N1 (centres unmarked) [Example 68, 4-[3-(difluoromethoxy)-4-{[2-(trifluoromethyl)phenyl]methoxy}phenyl]-2H,4H,5H,6H, 7H-pyrazolo[3,4-b]pyridin-6-one] | ≤ 316 | – | ≥ 8 | – |
| CCc1ccc(COc2ccc(C3CC(=O)Nc4n[nH]cc43)cc2OC)c(C(F)(F)F)c1 (single isomer, unassigned; (+)) [Example 207, (+)-4-(4-{[4-ethyl-2-(trifluoromethyl)phenyl]methoxy}-3-methoxyphenyl)-2H,4H,5H,6H,7H-pyrazolo[3,4-b]pyridin-6-one] | ≤ 316 | – | – | – |
| O=C1CC(c2ccc(COc3ccccc3S(F)(F)(F)(F)F)c(OC(F)(F)F)c2)c2c[nH]nc2N1 (centres unmarked) [Example 107, 4-(4-{[2-(pentafluoro-λ^6-sulfanyl)phenoxy]methyl}-3-(trifluoromethoxy)phenyl)-2H,4H,5H,6H, 7H-pyrazolo[3,4-b]pyridin-6-one] | ≤ 316 | 10 to 100 | – | – |
| COc1cc(C2CC(=O)Nc3n[nH]cc32)ccc1COc1ccc(Br)cc1C(F)(F)F (centres unmarked) [Example 96, 4-(4-{[4-bromo-2-(trifluoromethyl)phenoxy]methyl}-3-methoxyphenyl)-2H,4H,5H,6H, 7H-pyrazolo[3,4-b]pyridin-6-one] | ≤ 316 | ≤ 10 | – | – |
| CCOc1cc(C2CC(=O)Nc3n[nH]cc32)ccc1OCc1ccccc1C(F)(F)F (centres unmarked) [Example 62, 4-(3-ethoxy-4-{[2-(trifluoromethyl)phenyl]methoxy}phenyl)-2H,4H,5H,6H, 7H-pyrazolo[3,4-b]pyridin-6-one] | ≤ 316 | – | ≥ 8 | – |
| COc1ccc(COc2ccc(C3CC(=O)Nc4n[nH]cc43)cc2OC)c(C(F)(F)F)c1 (centres unmarked) [Example 19, 4-(3-methoxy-4-{[4-methoxy-2-(trifluoromethyl)phenyl]methoxy}phenyl)-2H,4H,5H,6H,7H-pyrazolo[3,4-b]pyridin-6-one] | ≤ 316 | – | ≥ 8 | – |
| COc1cc(-c2cc(=O)[nH]c3n[nH]cc23)ccc1OCc1ccc(CCO)cc1C(F)(F)F [Example 176, 4-(4-{[4-(2-hydroxyethyl)-2-(trifluoromethyl)phenyl]methoxy}-3-methoxyphenyl)-2H, 6H, 7H-pyrazolo[3,4-b]pyridin-6-one] | ≤ 316 | – | ≥ 8 | – |
| COc1cc(C2CC(=O)Nc3n[nH]cc32)ccc1OCc1ccc(C#CCO)cc1C(F)(F)F (centres unmarked) [Example 146, 4-(4-{[4-(3-hydroxyprop-1-yn-1-yl)-2-(trifluoromethyl)phenyl]methoxy}-3-methoxyphenyl)-2H,4H,5H,6H, 7H-pyrazolo[3,4-b]pyridin-6-one] | ≤ 316 | – | ≥ 8 | – |
| COc1cc(C2CC(=O)Nc3n[nH]cc32)ccc1OCc1ccc(C(C)=O)cc1C(F)(F)F (single isomer, unassigned; (-)) [Example 200, (−)-4-(4-{[4-acetyl-2-(trifluoromethyl)phenyl]methoxy}-3-methoxyphenyl)-2H,4H,5H,6H,7H-pyrazolo[3,4-b]pyridin-6-one] | ≤ 316 | – | – | – |
| COc1ccc(COc2ccc(C3CC(=O)Nc4[nH]nnc43)cc2OC)c(C(F)(F)F)c1 (single isomer, unassigned; (-)) [Example 202, (−)-7-(3-methoxy-4-{[4-methoxy-2-(trifluoromethyl)phenyl]methoxy}phenyl)-3H,4H,5H,6H,7H-[1,2,3]triazolo[4,5-b]pyridin-5-one] | ≤ 316 | – | – | – |
| COc1cc(-c2cc(=O)[nH]c3n[nH]cc23)ccc1OCc1ccc(C(C)=O)cc1C(F)(F)F [Example 174, 4-(4-{[4-acetyl-2-(trifluoromethyl)phenyl]methoxy}-3-methoxyphenyl)-2H,6H, 7H-pyrazolo[3,4-b]pyridin-6-one] | ≤ 316 | – | ≥ 8 | – |
| COc1ccc(COc2ccc(C3CC(=O)Nc4n[nH]cc43)cc2OC)c(C(F)(F)F)c1 (single isomer, unassigned; (-)) [Example 198, (−)-4-(3-methoxy-4-{[4-methoxy-2-(trifluoromethyl)phenyl]methoxy}phenyl)-2H,4H,5H,6H,7H-pyrazolo[3,4-b]pyridin-6-one] | ≤ 316 | – | – | – |
| COc1cc(C2CC(=O)Nc3n[nH]cc32)ccc1OCc1ccc(CCO)cc1C(F)(F)F (single isomer, unassigned; (-)) [Example 212, (−)-4-(4-{[4-(2-hydroxyethyl)-2-(trifluoromethyl)phenyl]methoxy}-3-methoxyphenyl)-2H,4H,5H,6H,7H-pyrazolo[3,4-b]pyridin-6-one] | – | – | – | ≥ 6.5 |
